Like-named read-outs stand apart in the source and are kept apart here.
Assays:
[1] = system: 7 different bacterial strains; details: for bacterial survival rate, Mean: exposed 60 min.; for surviving bacteria, Mean (% of control): 1% hydrogen peroxide
[2] = system: 7 different bacterial strains; details: mid-log phase, absorbance at 600 nm, 7 strains pooled
Excerpt: The obtained data from each specific bacterial strain were pooled.

[3] = hydrogen peroxide taken alone
[4] = Effect of buffer (citrate) in swelling medium on degradation of H2O2; details: no stabilizer
[5] = Experimental: The pH value of the latter solution was adjusted to 5.5 with 1 M NaOH. 10.0 mL aliquots of each of the two solutions were taken out and placed in 50 mL brown PE-containers.
The samples were β-irradiation at Risø National Laboratory. The samples were measured before irradiation, immediately after irradiation and after 2 and 4 weeks storage at 60° C. (triple determination).

[6] = 23° C., 8 months, pH 7 without buffer
Experimental: Samples were β-sterilized at 50 kGy and stored at 23° C. for 8 months.
The results were calculated from 86 separate samples (mean value±standard deviation of mean value) (Table 5.1).

[7] = Various stabilizers: degradation of H2O2 at pH 4, 5.5 and 7; details: no stabilizer, 25 mM citric acid, approx. 1% H2O2
Experimental: Therefore the investigation of the influence of the pH-value on the stability in our system was included in the study.
24 different kinds of swelling media containing different stabilizers (one without stabilizer) and 3 different pH-values (pH 4, 5.5 and 7) were prepared. […] The concentration of sodium chloride in each of these three swelling media was 0.7% (w/w). Sodium chloride was tested because it could be used as an osmolality increasing agent. […] Two different kinds of material for the stick-pack were used, one with “peel” and one with “non-peel”. […] The irradiation dose was 2*26 kGy.
The stick-pack with “peel” was a laminated material consisting of PETP (12 μm), aluminium (9 μm) and polyethylene peel (polyethylene+10% polybutylene) (70 μm). […] The stick-packs were made out of a stamped area of 13×35 mm that was welded in the longitudinal direction by 1×3 units on a welder. It was welded by 2×2.2 units across in one end of the stick-pack, and in the other end by 4.0 bar, 130° C. and 3.5 s (breakable seal).
The stick-packs were stored for stability testing at 23° C. and 40° C. Samples were taken out after irradiation and after 2 and 4 weeks at 40° C. and 8 and 16 weeks at 23° C.

For `OO` [Std H2O2, hydrogen peroxide], the “bacterial survival rate, Mean” value ([1]; 0.016% hydrogen peroxide) was 49.8, the “bacterial survival rate, Mean” value ([1]; 0.031% hydrogen peroxide) was 38.1 and the “bacterial survival rate, Mean” value ([1]; 0.063% hydrogen peroxide) was 27.8. The “bacterial survival rate, Mean” value ([1]; 0.125% hydrogen peroxide) was 14.5, the “bacterial survival rate, Mean” value ([1]; 0.250% hydrogen peroxide) was 9.1 and the “bacterial survival rate, Mean” value ([1]; 0.500% hydrogen peroxide) was 0.2. For the same compound, the “bacterial survival rate, Mean” value ([1]; 1.000% hydrogen peroxide) was 0.0, the “surviving bacteria, Mean (% of control)” value ([1]; exposure time 5 min) was 37 % of control and the “surviving bacteria, Mean (% of control)” value ([1]; exposure time 10 min) was 17 % of control. The “surviving bacteria, Mean (% of control)” value ([1]; exposure time 15 min) was 6 % of control, the “bacterial growth, Mean (% of control)” value ([2]; 0.00000256% hydrogen peroxide) was 110.0 % of control and the “bacterial growth, Mean (% of control)” value ([2]; 0.0000128% hydrogen peroxide) was 99.8 % of control. For the same compound, the “bacterial growth, Mean (% of control)” value ([2]; 0.000064% hydrogen peroxide) was 97.9 % of control, the “bacterial growth, Mean (% of control)” value ([2]; 0.000320% hydrogen peroxide) was 96.2 % of control and the “bacterial growth, Mean (% of control)” value ([2]; 0.0016% hydrogen peroxide) was 87.3 % of control. The “bacterial growth, Mean (% of control)” value ([2]; 0.008% hydrogen peroxide) was 63.0 % of control, the “bacterial growth, Mean (% of control)” value ([2]; 0.04% hydrogen peroxide) was 35.6 % of control and the “bacterial growth, Mean (% of control)” value ([2]; 0.2% hydrogen peroxide) was 16.0 % of control. The “bacterial growth, Mean (% of control)” value ([2]; 1.0% hydrogen peroxide) was 11.7 % of control, the “speed of effect compared to a range of other anti-microbial agents” value [3] was “rapid” and the “Calculated degraded amount of H2O2 (%) after 2 years storage at 23° C.” value (shortened to “Calculated degraded amount of H2O2 (%)”) ([4]; 0 mM citrate, pH 5.5) was 22.4%. The “Calculated degraded amount of H2O2 (%)” value ([4]; 0 mM citrate, pH 7) was 60.2%, the “Calculated degraded amount of H2O2 (%)” value ([4]; 10 mM citrate, pH 4) was 47.6% and the “Calculated degraded amount of H2O2 (%)” value ([4]; 10 mM citrate, pH 5.5) was 63.0%. For the same compound, the “Calculated degraded amount of H2O2 (%)” value ([4]; 10 mM citrate, pH 7) was 277.1%, the “Calculated degraded amount of H2O2 (%)” value ([4]; 25 mM citrate, pH 5.5) was 74.2% and the “Calculated degraded amount of H2O2 (%)” value ([4]; 25 mM citrate, pH 7) was 201.5%. For the same compound, the “Concentration of H2O2 (%-point)” value ([5]; Series I, catheter swelled in a solution of PVP, 0 kGy, 1 week at 60° C.) was 0.97 %-point, the “Concentration of H2O2 (%-point)” value ([5]; Series I, catheter swelled in a solution of PVP, 0 kGy, 2 weeks at 60° C.) was 0.87 %-point and the “Concentration of H2O2 (%-point)” value ([5]; Series I, catheter swelled in a solution of PVP, 0 kGy, after irradiation) was 1.00 %-point. For the same compound, the “Concentration of H2O2 (%-point)” value ([5]; Series I, catheter swelled in a solution of PVP, 25 kGy, 1 week at 60° C.) was 0.79 %-point, the “Concentration of H2O2 (%-point)” value ([5]; Series I, catheter swelled in a solution of PVP, 25 kGy, 2 weeks at 60° C.) was 0.70 %-point and the “Concentration of H2O2 (%-point)” value ([5]; Series I, catheter swelled in a solution of PVP, 25 kGy, after irradiation) was 0.85 %-point. For the same compound, the “Concentration of H2O2 (%-point)” value ([5]; Series I, catheter swelled in a solution of PVP, 50 kGy, 1 week at 60° C.) was 0.58 %-point, the “Concentration of H2O2 (%-point)” value ([5]; Series I, catheter swelled in a solution of PVP, 50 kGy, 2 weeks at 60° C.) was 0.46 %-point and the “Concentration of H2O2 (%-point)” value ([5]; Series I, catheter swelled in a solution of PVP, 50 kGy, after irradiation) was 0.73 %-point. For the same compound, the “Concentration of H2O2 (%-point)” value ([5]; Series I, catheter swelled in a solution of PVP, 75 kGy, 1 week at 60° C.) was 0.37 %-point, the “Concentration of H2O2 (%-point)” value ([5]; Series I, catheter swelled in a solution of PVP, 75 kGy, 2 weeks at 60° C.) was 0.26 %-point and the “Concentration of H2O2 (%-point)” value ([5]; Series I, catheter swelled in a solution of PVP, 75 kGy, after irradiation) was 0.57 %-point. The “Concentration of H2O2 (%-point)” value ([5]; Series II, catheter swelled in distilled water, 0 kGy, 1 week at 60° C.) was 0.98 %-point, the “Concentration of H2O2 (%-point)” value ([5]; Series II, catheter swelled in distilled water, 0 kGy, 2 weeks at 60° C.) was 0.92 %-point and the “Concentration of H2O2 (%-point)” value ([5]; Series II, catheter swelled in distilled water, 0 kGy, after irradiation) was 1.00 %-point. The “Concentration of H2O2 (%-point)” value ([5]; Series II, catheter swelled in distilled water, 25 kGy, 1 week at 60° C.) was 0.91 %-point, the “Concentration of H2O2 (%-point)” value ([5]; Series II, catheter swelled in distilled water, 25 kGy, 2 weeks at 60° C.) was 0.85 %-point and the “Concentration of H2O2 (%-point)” value ([5]; Series II, catheter swelled in distilled water, 25 kGy, after irradiation) was 0.93 %-point. For the same compound, the “Concentration of H2O2 (%-point)” value ([5]; Series II, catheter swelled in distilled water, 50 kGy, 1 week at 60° C.) was 0.81 %-point, the “Concentration of H2O2 (%-point)” value ([5]; Series II, catheter swelled in distilled water, 50 kGy, 2 weeks at 60° C.) was 0.75 %-point and the “Concentration of H2O2 (%-point)” value ([5]; Series II, catheter swelled in distilled water, 50 kGy, after irradiation) was 0.87 %-point. The “Concentration of H2O2 (%-point)” value ([5]; Series II, catheter swelled in distilled water, 75 kGy, 1 week at 60° C.) was 0.74 %-point, the “Concentration of H2O2 (%-point)” value ([5]; Series II, catheter swelled in distilled water, 75 kGy, 2 weeks at 60° C.) was 0.66 %-point and the “Concentration of H2O2 (%-point)” value ([5]; Series II, catheter swelled in distilled water, 75 kGy, after irradiation) was 0.81 %-point. For the same compound, the “Concentration of H2O2 (%-point)” value ([5]; Series III, H2O2-solution in distilled water, 0 kGy, 1 week at 60° C.) was 0.87 %-point, the “Concentration of H2O2 (%-point)” value ([5]; Series III, H2O2-solution in distilled water, 0 kGy, 2 weeks at 60° C.) was 0.76 %-point and the “Concentration of H2O2 (%-point)” value ([5]; Series III, H2O2-solution in distilled water, 0 kGy, after irradiation) was 1.00 %-point. For the same compound, the “Concentration of H2O2 (%-point)” value ([5]; Series III, H2O2-solution in distilled water, 25 kGy, 1 week at 60° C.) was 0.91 %-point, the “Concentration of H2O2 (%-point)” value ([5]; Series III, H2O2-solution in distilled water, 25 kGy, 2 weeks at 60° C.) was 0.88 %-point and the “Concentration of H2O2 (%-point)” value ([5]; Series III, H2O2-solution in distilled water, 25 kGy, after irradiation) was 0.95 %-point. For the same compound, the “Concentration of H2O2 (%-point)” value ([5]; Series III, H2O2-solution in distilled water, 50 kGy, 1 week at 60° C.) was 0.84 %-point, the “Concentration of H2O2 (%-point)” value ([5]; Series III, H2O2-solution in distilled water, 50 kGy, 2 weeks at 60° C.) was 0.85 %-point and the “Concentration of H2O2 (%-point)” value ([5]; Series III, H2O2-solution in distilled water, 50 kGy, after irradiation) was 0.92 %-point. The “Concentration of H2O2 (%-point)” value ([5]; Series III, H2O2-solution in distilled water, 75 kGy, 1 week at 60° C.) was 0.79 %-point, the “Concentration of H2O2 (%-point)” value ([5]; Series III, H2O2-solution in distilled water, 75 kGy, 2 weeks at 60° C.) was 0.77 %-point and the “Concentration of H2O2 (%-point)” value ([5]; Series III, H2O2-solution in distilled water, 75 kGy, after irradiation) was 0.89 %-point. For the same compound, the “H2O2 loss per day (%)” value ([6]; initial 1% H2O2, 0% PVP C-15, 50 kGy) was 0.088 ± 0.029%, the “H2O2 loss per day (%)” value ([6]; initial 1% H2O2, 6% PVP C-15, 50 kGy) was 0.167 ± 0.048% and the “calculated amount of degraded H2O2 after 2 years of storage at 23° C.” value (“calculated amount of degraded H2O2” below) ([7]; pH 4) was 15.7%. The “calculated amount of degraded H2O2” value ([7]; pH 5.5) was 31.7% and the “calculated amount of degraded H2O2” value ([7]; pH 7) was 54.7%.

Source: US9028858B2 (Coloplast A/S, priority 2003, dated 2015)
